Source: patent US20250011809A1, “VIRAL VECTOR PRODUCTION” (Cell Therapy Catapult Limited, priority 2021, published 2025)
“And” between values parts separate entries of the source, which are not always exact repeats. Identical values can stand only once. Ends that are not written are not given here.

Columns and labels:
Format in all cases: cell-based, human
HEK293 cells = assay: Viability of adherent HEK293 cells after transfection with GFP reporter plasmid (Example 1); conditions: 3 days after transfection with 50 ng GFP plasmid; RALA N:P10, PEIpro 3:1; FIG. 1
Procedure: HEK293 cells were seeded at a density of 1×10^5 cells per well on 24 well plates. 24 hrs later, cells were transfected with 50 ng of plasmid encoding a GFP reporter gene, either complexed with RALA (SEQ ID NO: 1) at N:P10 (14.5 μg of RALA is complexed per 1 μg of DNA) or using PEIpro at a 3:1 ratio. The cells were stained to assess cell viability after 3 days.

[1] = HEK293-F cell count and viability by flow cytometry after transfection in suspension culture (Example 5); set-up: viability at 24 h / viability at 48 h / viability at 72 h: concentration or dose not given beside the values; conditions: human, HEK293-F cells in suspension culture (shake flasks); for viability at 24 h: 24 h post-transf; for viability at 48 h: 48 h post-transf; for viability at 72 h: 72 h post-transf
Procedure: (§1) HEK293-F cells were seeded into shake flasks with a 20 mL serum-free BalanCD medium at working volume at a cell concentration of 1×10^6/mL for lentiviral production and 2×10^6/mL for AAV production. Transfection with the plasmids for AAV1, AAV2, LV (two experimental replicates, LV1 and LV2) were carried out using PEI-Pro or RALA peptides as set out in Table 8 below.
(§2) The HEK293-F cell counts were determined using flow cytometry immediately prior to transfection, and then at 24 hrs, 48 hrs and 72 hrs post transfection.

HEK293-F cells = assay: as above; set-up: viability at 24 h / viability at 48 h / viability at 72 h: concentration or dose not given beside the values
Procedure: as §1, §2

[2] = AAV1 plasmids, 24 h post-transf
[3] = AAV1 plasmids, 48 h post-transf
[4] = AAV1 plasmids, 72 h post-transf
[5] = AAV2 plasmids, 24 h post-transf
[6] = AAV2 plasmids, 48 h post-transf

For WEARLARALARALARHLARALARALRACEA [RALA], the “viability of adherent HEK293 cells” value (HEK293 cells) was “significantly greater”, the viability at 24 h ([1]; AAV1 plasmids) was 90% and the viability at 48 h ([1]; AAV1 plasmids) was 86.1%. The viability at 72 h ([1]; AAV1 plasmids) was 83.1%, the viability at 24 h ([1]; AAV2 plasmids) was 87.7% and the viability at 48 h ([1]; AAV2 plasmids) was 81.6%. It also gave a viability at 72 h ([1]; AAV2 plasmids) of 76%, a viability at 24 h ([1]; LV plasmids) of 92% and a viability at 48 h ([1]; LV plasmids) of 92%. The Count (HEK293-F cells; [2]) was 3.63E+06 and 3.52E+06, the Via % (HEK293-F cells; [2]) was 88.2% and the Count (HEK293-F cells; [3]) was 4.14E+06 and 3.39E+06. The Via % (HEK293-F cells; [3]) was 83.9%, the Count (HEK293-F cells; [4]) was 5.82E+06 and 5.55E+06 and the Via % (HEK293-F cells; [4]) was 82.5%. For the same sequence, the Count (HEK293-F cells; [5]) was 3.57E+06 and 3.37E+06, the Via % (HEK293-F cells; [5]) was 89.1% and the Count (HEK293-F cells; [6]) was 3.81E+06 and 4.07E+06. The Via % (HEK293-F cells; [6]) was 84.8%, the Via % (HEK293-F cells; AAV2 plasmids, 72 h post-transf) was 76.5% and the Count (HEK293-F cells; LV plasmids, 24 h post-transf) was 2.31E+06 and 2.05E+06. The Via % (HEK293-F cells; LV plasmids, 24 h post-transf) was 92.7%, the Count (HEK293-F cells; LV plasmids, 48 h post-transf) was 3.42E+06 and 2.83E+06 and the Via % (HEK293-F cells; LV plasmids, 48 h post-transf) was 88.6%. For the same sequence, the Via % (HEK293-F cells; LV plasmids, 72 h post-transf) was 89.6% and 86%.
